HELM strings list units from the 5' end as sugar, base in round brackets, then linkage (d deoxyribose, r ribose, m 2'-O-methyl, p phosphodiester). Strings are as the collection lists them; they lack the last nucleoside at the 3' end of the tested compound. [moe] = 2'-O-(2-methoxyethyl) (MOE); [sp] = phosphorothioate linkage; [m5C] = 5-methylcytosine
Target: LRRK2
Assay: mouse, dose not given
Conditions: ASO

**Q.** With “RNA1{[moe]([m5C])[sp].[moe](T)p.[moe](T)p.[moe]([m5C])p.[moe](A)[sp].d(G)[sp].d(T)[sp].d(T)[sp].d([m5C])[sp].d([m5C])[sp].d(T)[sp].d(T)[sp].d([m5C])[sp].d(A)[sp].d(G)[sp].[moe](T)p.[moe]([m5C])p.[moe](T)[sp].[moe]([m5C])}$$$$ (last 3' nucleoside missing)” as the substance, how does the 3 h FOB score read?
**A.** Its 3 h FOB score is 4 score 0-7.

**Q.** With “RNA1{[moe]([m5C])[sp].[moe](T)p.[moe](G)[sp].[moe](T)[sp].[moe]([m5C])[sp].d(A)[sp].d([m5C])[sp].d([m5C])[sp].d(T)[sp].d(T)[sp].d(T)[sp].d([m5C])[sp].d([m5C])[sp].d([m5C])[sp].d(A)[sp].[moe](A)[sp].[moe](T)p.[moe](G)[sp].[moe]([m5C])}$$$$ (last 3' nucleoside missing)” as the substance, how does the 3 h FOB score read?
**A.** The 3 h FOB score was 3 score 0-7.

**Q.** How did the 3 h FOB score turn out when “RNA1{[moe](A)[sp].[moe](T)p.[moe](G)[sp].[moe](A)[sp].[moe](G)[sp].d(T)[sp].d(G)[sp].d([m5C])[sp].d(A)[sp].d(T)[sp].d(G)[sp].d(G)[sp].d([m5C])[sp].d(A)[sp].d(T)[sp].[moe]([m5C])[sp].[moe](A)p.[moe](A)[sp].[moe](A)}$$$$ (last 3' nucleoside missing)” was run?
**A.** The 3 h FOB score was 6 score 0-7.

**Q.** How did the 3 h FOB score turn out when “RNA1{[moe]([m5C])[sp].[moe](G)p.[moe]([m5C])p.[moe](A)p.[moe]([m5C])[sp].d(T)[sp].d(T)[sp].d(A)[sp].d(A)[sp].d([m5C])[sp].d(A)[sp].d(A)[sp].d(T)[sp].d(A)[sp].d(T)[sp].[moe]([m5C])p.[moe](A)p.[moe](T)[sp].[moe](A)}$$$$ (last 3' nucleoside missing)” was run?
**A.** The 3 h FOB score was 0 score 0-7.

**Q.** “RNA1{[moe](G)[sp].[moe]([m5C])p.[moe](T)p.[moe](T)p.[moe](T)[sp].d([m5C])[sp].d(A)[sp].d(T)[sp].d(A)[sp].d(G)[sp].d([m5C])[sp].d(T)[sp].d(T)[sp].d([m5C])[sp].d([m5C])[sp].[moe](A)p.[moe]([m5C])p.[moe]([m5C])[sp].[moe](A)}$$$$ (last 3' nucleoside missing)” was tested. Which 3 h FOB score did it give?
**A.** Its 3 h FOB score is 0 score 0-7.

**Q.** “RNA1{[moe]([m5C])[sp].[moe](A)p.[moe](T)[sp].[moe](T)[sp].[moe]([m5C])[sp].d(G)[sp].d(G)[sp].d(T)[sp].d(T)[sp].d(A)[sp].d(T)[sp].d(A)[sp].d(A)[sp].d(G)[sp].d(G)[sp].[moe]([m5C])[sp].[moe](A)p.[moe]([m5C])[sp].[moe](A)}$$$$ (last 3' nucleoside missing)” was tested. Which 3 h FOB score did it give?
**A.** Its 3 h FOB score is 7 score 0-7.

**Q.** With “RNA1{[moe](T)[sp].[moe](T)p.[moe](A)[sp].[moe](A)[sp].[moe]([m5C])[sp].d(A)[sp].d(A)[sp].d(T)[sp].d(A)[sp].d(T)[sp].d([m5C])[sp].d(A)[sp].d(T)[sp].d(A)[sp].d(T)[sp].[moe](A)[sp].[moe](A)p.[moe](T)[sp].[moe]([m5C])}$$$$ (last 3' nucleoside missing)” as the substance, how does the 3 h FOB score read?
**A.** Its 3 h FOB score is 0 score 0-7.

**Q.** For “RNA1{[moe](G)[sp].[moe]([m5C])p.[moe]([m5C])[sp].[moe](A)[sp].[moe]([m5C])[sp].d(T)[sp].d([m5C])[sp].d(A)[sp].d(T)[sp].d(G)[sp].d(A)[sp].d(G)[sp].d(G)[sp].d(A)[sp].d([m5C])[sp].[moe](T)[sp].[moe](T)p.[moe]([m5C])[sp].[moe]([m5C])}$$$$ (last 3' nucleoside missing)”, which 3 h FOB score is on record?
**A.** Its 3 h FOB score is 6 score 0-7.

**Q.** With “RNA1{[moe](G)[sp].[moe]([m5C])p.[moe]([m5C])p.[moe]([m5C])p.[moe](A)[sp].d(G)[sp].d([m5C])[sp].d([m5C])[sp].d(A)[sp].d(A)[sp].d(A)[sp].d(T)[sp].d(G)[sp].d([m5C])[sp].d(T)[sp].[moe](T)p.[moe](G)p.[moe]([m5C])[sp].[moe](A)}$$$$ (last 3' nucleoside missing)” as the substance, how does the 3 h FOB score read?
**A.** The 3 h FOB score was 0 score 0-7.

**Q.** How did the 3 h FOB score turn out when “RNA1{[moe](G)[sp].[moe]([m5C])p.[moe](A)p.[moe]([m5C])p.[moe](A)[sp].d([m5C])[sp].d(A)[sp].d(G)[sp].d(T)[sp].d(G)[sp].d(T)[sp].d(A)[sp].d(G)[sp].d(T)[sp].d([m5C])[sp].[moe](A)p.[moe](T)p.[moe](A)[sp].[moe]([m5C])}$$$$ (last 3' nucleoside missing)” was run?
**A.** The 3 h FOB score was 2 score 0-7.

**Q.** For “RNA1{[moe](G)[sp].[moe]([m5C])p.[moe]([m5C])p.[moe]([m5C])p.[moe](A)[sp].d(T)[sp].d(T)[sp].d(T)[sp].d([m5C])[sp].d(T)[sp].d(T)[sp].d([m5C])[sp].d(A)[sp].d(A)[sp].d([m5C])[sp].[moe](A)p.[moe](G)p.[moe](A)[sp].[moe](G)}$$$$ (last 3' nucleoside missing)”, which 3 h FOB score is on record?
**A.** Its 3 h FOB score is 0 score 0-7.

**Q.** For “RNA1{[moe]([m5C])[sp].[moe](A)p.[moe](T)p.[moe](A)p.[moe](A)[sp].d(G)[sp].d(T)[sp].d(T)[sp].d(T)[sp].d([m5C])[sp].d(A)[sp].d(T)[sp].d(T)[sp].d([m5C])[sp].d(G)[sp].[moe](G)p.[moe](T)p.[moe](T)[sp].[moe](A)}$$$$ (last 3' nucleoside missing)”, which 3 h FOB score is on record?
**A.** Its 3 h FOB score is 5 score 0-7.

**Q.** With “RNA1{[moe](A)[sp].[moe](T)p.[moe](G)[sp].[moe]([m5C])[sp].[moe](T)[sp].d(T)[sp].d(T)[sp].d([m5C])[sp].d(A)[sp].d(T)[sp].d(A)[sp].d(G)[sp].d([m5C])[sp].d(T)[sp].d(T)[sp].[moe]([m5C])[sp].[moe]([m5C])p.[moe](A)[sp].[moe]([m5C])}$$$$ (last 3' nucleoside missing)” as the substance, how does the 3 h FOB score read?
**A.** The 3 h FOB score was 2 score 0-7.

**Q.** How did the 3 h FOB score turn out when “RNA1{[moe]([m5C])[sp].[moe](T)p.[moe](T)p.[moe](T)p.[moe]([m5C])[sp].d(A)[sp].d([m5C])[sp].d(T)[sp].d([m5C])[sp].d(A)[sp].d(T)[sp].d(A)[sp].d(G)[sp].d(G)[sp].d(G)[sp].[moe](A)p.[moe](A)p.[moe](T)[sp].[moe](G)}$$$$ (last 3' nucleoside missing)” was run?
**A.** Its 3 h FOB score is 2.5 score 0-7.

**Q.** With “RNA1{[moe](A)[sp].[moe]([m5C])p.[moe]([m5C])p.[moe]([m5C])p.[moe](T)[sp].d(T)[sp].d(T)[sp].d([m5C])[sp].d([m5C])[sp].d(A)[sp].d(T)[sp].d(G)[sp].d(T)[sp].d(G)[sp].d(A)[sp].[moe](A)p.[moe]([m5C])p.[moe](A)[sp].[moe](T)}$$$$ (last 3' nucleoside missing)” as the substance, how does the 3 h FOB score read?
**A.** The 3 h FOB score was 4 score 0-7.

**Q.** With “RNA1{[moe](A)[sp].[moe](G)p.[moe](G)p.[moe](A)p.[moe](G)[sp].d(A)[sp].d(A)[sp].d(T)[sp].d(G)[sp].d(T)[sp].d(A)[sp].d(T)[sp].d(A)[sp].d(T)[sp].d(G)[sp].[moe]([m5C])p.[moe](T)p.[moe](T)[sp].[moe]([m5C])}$$$$ (last 3' nucleoside missing)” as the substance, how does the 3 h FOB score read?
**A.** Its 3 h FOB score is 6 score 0-7.

**Q.** How did the 3 h FOB score turn out when “RNA1{[moe]([m5C])[sp].[moe]([m5C])p.[moe](A)[sp].[moe]([m5C])[sp].[moe](A)[sp].d(A)[sp].d(A)[sp].d([m5C])[sp].d(T)[sp].d([m5C])[sp].d(A)[sp].d(T)[sp].d(G)[sp].d(G)[sp].d(A)[sp].[moe]([m5C])p.[moe](T)p.[moe](T)[sp].[moe]([m5C])}$$$$ (last 3' nucleoside missing)” was run?
**A.** The 3 h FOB score was 5 score 0-7.

**Q.** Which 3 h FOB score does the source give for “RNA1{[moe](T)[sp].[moe]([m5C])p.[moe](A)p.[moe]([m5C])p.[moe]([m5C])[sp].d(A)[sp].d([m5C])[sp].d(A)[sp].d(A)[sp].d(A)[sp].d([m5C])[sp].d(T)[sp].d([m5C])[sp].d(A)[sp].d(T)[sp].[moe](G)p.[moe](G)p.[moe](A)[sp].[moe]([m5C])}$$$$ (last 3' nucleoside missing)” here?
**A.** Its 3 h FOB score is 3 score 0-7.

**Q.** For “RNA1{[moe](G)[sp].[moe](T)p.[moe]([m5C])p.[moe](A)p.[moe]([m5C])[sp].d([m5C])[sp].d(T)[sp].d(T)[sp].d(T)[sp].d([m5C])[sp].d([m5C])[sp].d([m5C])[sp].d(A)[sp].d(A)[sp].d(T)[sp].[moe](G)p.[moe]([m5C])p.[moe](T)[sp].[moe](T)}$$$$ (last 3' nucleoside missing)”, which 3 h FOB score is on record?
**A.** The 3 h FOB score was 0 score 0-7.

**Q.** Which 3 h FOB score does the source give for “RNA1{[moe](G)[sp].[moe](T)p.[moe](A)p.[moe]([m5C])p.[moe]([m5C])[sp].d([m5C])[sp].d(T)[sp].d(T)[sp].d(T)[sp].d([m5C])[sp].d([m5C])[sp].d(A)[sp].d(T)[sp].d(G)[sp].d(T)[sp].[moe](G)p.[moe](A)p.[moe](A)[sp].[moe]([m5C])}$$$$ (last 3' nucleoside missing)” here?
**A.** The 3 h FOB score was 1 score 0-7.

**Q.** “RNA1{[moe](T)[sp].[moe]([m5C])p.[moe](T)p.[moe](T)p.[moe]([m5C])[sp].d(A)[sp].d(G)[sp].d(T)[sp].d(T)[sp].d([m5C])[sp].d([m5C])[sp].d(T)[sp].d(T)[sp].d([m5C])[sp].d(A)[sp].[moe](G)p.[moe](T)p.[moe]([m5C])[sp].[moe](T)}$$$$ (last 3' nucleoside missing)” was tested. Which 3 h FOB score did it give?
**A.** Its 3 h FOB score is 3 score 0-7.

**Q.** With “RNA1{[moe]([m5C])[sp].[moe](T)p.[moe](T)[sp].[moe]([m5C])[sp].[moe](A)[sp].d(G)[sp].d(T)[sp].d(T)[sp].d([m5C])[sp].d([m5C])[sp].d(T)[sp].d(T)[sp].d([m5C])[sp].d(A)[sp].d(G)[sp].[moe](T)[sp].[moe]([m5C])p.[moe](T)[sp].[moe]([m5C])}$$$$ (last 3' nucleoside missing)” as the substance, how does the 3 h FOB score read?
**A.** Its 3 h FOB score is 6 score 0-7.

**Q.** How did the 3 h FOB score turn out when “RNA1{[moe]([m5C])[sp].[moe]([m5C])p.[moe](A)[sp].[moe]([m5C])[sp].[moe](A)[sp].d(A)[sp].d(A)[sp].d([m5C])[sp].d(T)[sp].d([m5C])[sp].d(A)[sp].d(T)[sp].d(G)[sp].d(G)[sp].d(A)[sp].[moe]([m5C])[sp].[moe](T)p.[moe](T)[sp].[moe]([m5C])}$$$$ (last 3' nucleoside missing)” was run?
**A.** Its 3 h FOB score is 7 score 0-7.

**Q.** “RNA1{[moe](T)[sp].[moe](G)p.[moe]([m5C])[sp].[moe](T)[sp].[moe](G)[sp].d([m5C])[sp].d(T)[sp].d([m5C])[sp].d(A)[sp].d(T)[sp].d(A)[sp].d(T)[sp].d([m5C])[sp].d(T)[sp].d(A)[sp].[moe](A)[sp].[moe](A)p.[moe](G)[sp].[moe](A)}$$$$ (last 3' nucleoside missing)” was tested. Which 3 h FOB score did it give?
**A.** The 3 h FOB score was 0 score 0-7.

**Q.** With “RNA1{[moe](G)[sp].[moe](A)p.[moe](A)[sp].[moe]([m5C])[sp].[moe](T)[sp].d(T)[sp].d(T)[sp].d(A)[sp].d(T)[sp].d(A)[sp].d(T)[sp].d(A)[sp].d(T)[sp].d(A)[sp].d(G)[sp].[moe](T)[sp].[moe](T)p.[moe](A)[sp].[moe](T)}$$$$ (last 3' nucleoside missing)” as the substance, how does the 3 h FOB score read?
**A.** The 3 h FOB score was 2 score 0-7.

Reference: the OligoGym collection
